The target in one assay is T1, AuroraA-TPX2 (Homo sapiens, UniProt O14965).
T1 construct: 20 μL of AuroraA-TPX2 KD GST for a final volume of about 41 μL; GST
T1 sequence (O14965 133-383 limits assumed): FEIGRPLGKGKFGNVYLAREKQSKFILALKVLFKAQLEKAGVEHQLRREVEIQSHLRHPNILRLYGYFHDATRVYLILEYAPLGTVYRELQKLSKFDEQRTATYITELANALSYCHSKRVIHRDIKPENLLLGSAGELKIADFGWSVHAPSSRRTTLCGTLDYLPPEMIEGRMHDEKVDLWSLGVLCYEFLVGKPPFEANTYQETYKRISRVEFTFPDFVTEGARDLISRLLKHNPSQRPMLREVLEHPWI
T1 sequence (Q9ULW0 1-43 partner limits assumed): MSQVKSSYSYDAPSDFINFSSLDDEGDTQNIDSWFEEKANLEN
In words: AuroraA-TPX2 Homogeneous Time Resolved Fluorescent (HTRF) kinase assay. Format: biochemical. As to conditions: average; read-out: AurA_IC50_IP (uM Avg). Put shortly:
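HTRF read-out (Eu 615 nm to APC 655 nm) of phosphorylated biotin-PLK, detected with 0.02 nM europium anti-phosphoPLK antibody and 0.0005 mg/mL SA-APC after overnight equilibration.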
Background: TR-FRET usually uses a lanthanide donor and a delayed reading to cut background.

The next assay has as its target T2, AuroraB (Homo sapiens, UniProt Q96GD4).
T2 construct: 20 μL of AuroraB FL H is for a final volume of 41 μL; His
In words: AuroraB Homogeneous Time Resolved Fluorescent (HTRF) kinase assay. In kind it is biochemical. As to conditions: average; read-out: AurB_IC50_IP (uM Avg). The procedure, abridged:
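Full-length His-tagged kinase phosphorylates biotinylated Histone H3 (0.1 μM final) with ATP in pH 7.5 HEPES containing MgCl, MnCl, DTT and BSA for about 90 min. EDTA-containing detection mix with SA-APC and Eu-anti-phosphoHistone H3 then equilibrated about 60 min; HTRF read with 320 nm excitation, emissions 615/655 nm.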

Molecules are shown by their SMILES.

T2 sequence (Q96GD4 whole entry): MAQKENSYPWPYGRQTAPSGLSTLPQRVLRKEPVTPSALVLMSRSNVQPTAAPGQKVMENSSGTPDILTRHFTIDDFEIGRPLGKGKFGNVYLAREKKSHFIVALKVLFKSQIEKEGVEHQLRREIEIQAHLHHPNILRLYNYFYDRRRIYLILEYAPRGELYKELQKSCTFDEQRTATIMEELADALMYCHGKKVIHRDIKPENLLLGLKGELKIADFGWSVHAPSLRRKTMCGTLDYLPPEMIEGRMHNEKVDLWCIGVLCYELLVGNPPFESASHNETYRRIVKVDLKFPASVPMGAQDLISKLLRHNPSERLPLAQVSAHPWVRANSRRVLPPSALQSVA

As to `Clc1ccc(-c2nnc(Nc3ccc(Oc4ccnc5ccsc45)cc3)c3ccccc23)cc1` [compound 250, 4-(4-chlorophenyl)-N-(4-(thieno[3,2-b]pyridin-7-yloxy)phenyl)-1-phthalazinamine], the IC50 at AuroraA-TPX2 was 0.094 µM; on AuroraB, 0.003 µM.

`Cc1ccc(-c2nnc(Nc3ccc(Oc4ccnc5cc(C#N)ccc45)cc3)c3ccccc23)s1` [compound 162, 4-((4-((4-(5-methyl-2-thienyl)-1-phthalazinyl)amino)phenyl)oxy)-7-quinolinecarbonitrile]: the IC50 came to 0.012 µM at AuroraA-TPX2 and 0.004 µM at AuroraB.

For `COc1cnc2c(Oc3ccc(Nc4nnc(N5CCN(C)CC5)c5ccccc45)cc3)ccnc2c1` [compound 85, N-(4-((7-(methyloxy)-1,5-naphthyridin-4-yl)oxy)phenyl)-4-(4-methyl-1-piperazinyl)-1-phthalazinamine], the IC50 at AuroraA-TPX2 amounted to 0.066 µM; at AuroraB it was 0.004 µM.

Consider `COc1ccc2c(Oc3ccc(Nc4nnc(-c5ccc(Cl)cc5)c5c4CCC5)cc3)ccnc2c1` [compound 412], for which the IC50 at AuroraA-TPX2 and at AuroraB was greater than 25 µM each time.

As to `COc1cnc2c(Oc3ccc(Nc4nnc(-c5ccccc5)c5ccsc45)cc3)ccnc2c1` [compound 218, N-(4-((7-(methyloxy)-1,5-naphthyridin-4-yl)oxy)phenyl)-4-phenylthieno[2,3-d]pyridazin-7-amine], the IC50 came out at 0.027 µM on AuroraA-TPX2 and 0.003 µM at AuroraB.

For the molecule `Cn1cc(-c2ccc3c(Oc4ccc(Nc5nnc(-c6ccccc6)c6ccccc56)cc4)ccnc3c2)cn1` [compound 338, N-(4-(7-(1-methyl-1H-pyrazol-4-yl)quinolin-4-yloxy)phenyl)-4-phenylphthalazin-1-amine], the values for the IC50 on AuroraA-TPX2 and at AuroraB were 0.005 µM and 0.009 µM, respectively.

`COc1cc2nccc(Oc3ccc(Nc4nnc(-c5ccc(C(C)(C)C)cc5)c5ccccc45)cc3)c2cc1OC` [compound 106, N-(4-((6,7-bis(methyloxy)-4-quinolinyl)oxy)phenyl)-4-(4-(1,1-dimethylethyl)phenyl)-1-phthalazinamine]: the IC50 is 0.01 µM at AuroraA-TPX2 and 0.038 µM at AuroraB.

Consider `NC(=O)c1cc2nccc(Oc3ccc(Nc4nnc(-c5ccccc5)c5ccccc45)cc3F)c2s1` [compound 78, 7-((2-fluoro-4-((4-phenyl-1-phthalazinyl)amino)phenyl)oxy)thieno-[3,2-b]pyridine-2-carboxamide], for which the IC50 was found to be 0.022 µM on AuroraA-TPX2 and 0.004 µM at AuroraB.

Consider `COc1cnc2c(Oc3ccc(Nc4nnc(-c5ccc(Cl)nc5)c5ccccc45)cc3)ccnc2c1` [compound 235, 4-(6-chloro-3-pyridinyl)-N-(4-((7-(methyloxy)-1,5-naphthyridin-4-yl)oxy)phenyl)-1-phthalazinamine], for which the IC50 at AuroraA-TPX2 was 0.123 µM; on AuroraB, 0.003 µM.

As to `Clc1ccc(-c2nnc(Nc3ccc(Sc4ccnc5ccoc45)cc3)c3ccccc23)cc1` [compound 465], the IC50 was determined as 0.093 µM on AuroraA-TPX2 and 0.012 µM at AuroraB.

In the case of `COCCOc1ccc2nccc(Sc3ccc(Nc4nnc(-c5ccc(Cl)cc5)c5ccccc45)cc3)c2c1` [compound 434], the IC50 at AuroraA-TPX2 and at AuroraB was 0.109 µM each time.

`COc1ccc2c(Cc3ccc(Nc4nnc(-c5ccccc5)c5ccccc45)cc3)ccnc2c1` [compound 319, N-(4-((7-(methyloxy)-4-quinolinyl)methyl)phenyl)-4-phenyl-1-phthalazinamine]: the figures for the IC50 on AuroraA-TPX2 and on AuroraB were 0.176 µM and 0.02 µM, respectively.

As to `COc1cnc2c(Sc3ccc(Nc4nnc(N5CCC(F)(F)CC5)c5ccccc45)cc3)ccnc2c1` [compound 531], the IC50 turned out to be 0.089 µM on AuroraA-TPX2 and 0.024 µM at AuroraB.

Take `COc1ccc(-c2nnc(Nc3ccc(Sc4ccnc5cccnc45)cc3)c3ccccc23)cn1` [compound 509]: the IC50 on AuroraA-TPX2 stood at 0.317 µM; on AuroraB it was 0.013 µM.

Take `COc1cnc2c(Oc3ccc(Nc4nnc(-c5ccc(OC(F)(F)F)cc5)c5ccccc45)cc3)ccnc2c1` [compound 163, N-(4-((7-(methyloxy)-1,5-naphthyridin-4-yl)oxy)phenyl)-4-(4-((trifluoromethyl)oxy)phenyl)-1-phthalazinamine]: the IC50 on AuroraA-TPX2 was 0.072 µM; at AuroraB, 0.009 µM.

As to `COc1ccc(-c2nnc(Nc3ccc(Sc4ccnc5ccoc45)cc3)c3ccccc23)cn1` [compound 485], the IC50 at AuroraA-TPX2 came to 0.479 µM; at AuroraB it was 0.005 µM.

As for `COc1cnc2c(Sc3ccc(Nc4nnc(N5CCCCC5)c5ccccc45)cc3)ccnc2c1` [compound 346, N-(4-(7-methoxy-1,5-naphthyridin-4-ylthio)phenyl)-4-(piperidin-1-yl)phthalazin-1-amine], the figures for the IC50 on AuroraA-TPX2 and on AuroraB were 0.044 µM and 0.024 µM, respectively.

In the case of `COc1cnc2c(Oc3ccc(Nc4nnc(-c5ccc(C(C)C)cc5)c5ccccc45)cc3)ccnc2c1` [compound 155, 4-(4-(1-methylethyl)phenyl)-N-(4-((7-(methyloxy)-1,5-naphthyridin-4-yl)oxy)phenyl)-1-phthalazinamine], the IC50 on AuroraA-TPX2 came out at 0.029 µM; at AuroraB it was 0.011 µM.

For `CCc1cc(-c2ccc(C)cc2)nnc1Nc1ccc(Oc2ccnc3cc(OC)cnc23)cc1` [compound 199, 4-ethyl-N-(4-((7-(methyloxy)-1,5-naphthyridin-4-yl)oxy)phenyl)-6-(4-methylphenyl)-3-pyridazinamine], the IC50 on AuroraA-TPX2 came to 0.027 µM; at AuroraB it was 0.002 µM.

In the case of `Cc1csc(-c2nnc(Nc3ccc(Oc4ccnc5cccnc45)cc3)c3cc(F)c(F)cc23)c1` [compound 510], the IC50 at AuroraA-TPX2 was found to be 0.32 µM; on AuroraB, 0.05 µM.

Consider `Oc1cnc2c(Oc3ccc(Nc4nnc(-c5ccc(Cl)cc5)c5ccccc45)cc3)ccnc2c1` [Example 409, 8-(4-(4-(4-Chlorophenyl)phthalazin-1-ylamino)phenoxy)-1,5-naphthyridin-3-ol], for which the IC50 on AuroraA-TPX2 was found to be 0.02 µM; at AuroraB, 0.005 µM.

Turning to `Cc1csc(-c2nnc(Nc3ccc(Oc4ccnc5ccncc45)cc3)c3ccccc23)c1` [compound 429], the IC50 at AuroraA-TPX2 worked out at 0.046 µM; at AuroraB, 0.012 µM.

For `COc1cnc2c(Sc3ccc(Nc4nnc(N5CCN6CCCC[C@H]6C5)c5ccccc45)cc3)ccnc2c1` [compound 585], the IC50 at AuroraA-TPX2 was determined as 0.036 µM; on AuroraB, 0.006 µM.

In the case of `COc1cnc2c(Oc3ccc(Nc4nnc(-c5nc(C)cs5)c5ccccc45)cc3)ccnc2c1` [compound 82, N-(4-((7-(methyloxy)-1,5-naphthyridin-4-yl)oxy)phenyl)-4-(4-methyl-1,3-thiazol-2-yl)-1-phthalazinamine], the IC50 at AuroraA-TPX2 was determined as 0.013 µM; on AuroraB, 0.006 µM.

As for `COc1cc2nccc(Oc3ccc(Nc4nnc(-c5cccs5)c5ccccc45)cc3F)c2cc1OC` [compound 76, N-(4-((6,7-bis(methyloxy)-4-quinolinyl)oxy)-3-fluorophenyl)-4-(2-thienyl)-1-phthalazinamine], the IC50 came to 0.034 µM at AuroraA-TPX2 and 0.106 µM at AuroraB.

With `COc1cnc2c(Oc3ccc(Nc4nnc(-c5ccc(F)c(C)c5)c5ccccc45)cc3)ccnc2c1` [compound 246, 4-(4-fluoro-3-methylphenyl)-N-(4-((7-(methyloxy)-1,5-naphthyridin-4-yl)oxy)phenyl)-1-phthalazinamine], the IC50 is 0.032 µM on AuroraA-TPX2 and 0.008 µM on AuroraB.

`COCCOc1ccc2c(Sc3ccc(Nc4nnc(-c5ccc(Cl)cc5)c5ccccc45)cc3)ccnc2c1` [compound 431]: the IC50 on AuroraA-TPX2 worked out at 0.012 µM; at AuroraB, 0.018 µM.

The values above are taken from US8557816B2, “Aurora kinase modulators and method of use” (Amgen Inc., priority 2007, dated 2013).
